One compound from paper PMC12278908, “Genome integrity sensing by the broad-spectrum Hachiman antiphage defense complex” (Cell, 2024) can be followed below.

The assay deals with T1, HamAB (Escherichia coli, UniProt A0A426EXV0).
T1 construct: gene DU321_04165; native locus coexpressed in E. coli BL21-AI; only HamA tagged 10xHis-MBP-TEV, TEV-treated; 1:1 heterodimer; with Hachiman antiphage defense system nuclease HamA (DUF1837 domain-containing protein)
T1 sequence (A0A426EXV0 1-1174): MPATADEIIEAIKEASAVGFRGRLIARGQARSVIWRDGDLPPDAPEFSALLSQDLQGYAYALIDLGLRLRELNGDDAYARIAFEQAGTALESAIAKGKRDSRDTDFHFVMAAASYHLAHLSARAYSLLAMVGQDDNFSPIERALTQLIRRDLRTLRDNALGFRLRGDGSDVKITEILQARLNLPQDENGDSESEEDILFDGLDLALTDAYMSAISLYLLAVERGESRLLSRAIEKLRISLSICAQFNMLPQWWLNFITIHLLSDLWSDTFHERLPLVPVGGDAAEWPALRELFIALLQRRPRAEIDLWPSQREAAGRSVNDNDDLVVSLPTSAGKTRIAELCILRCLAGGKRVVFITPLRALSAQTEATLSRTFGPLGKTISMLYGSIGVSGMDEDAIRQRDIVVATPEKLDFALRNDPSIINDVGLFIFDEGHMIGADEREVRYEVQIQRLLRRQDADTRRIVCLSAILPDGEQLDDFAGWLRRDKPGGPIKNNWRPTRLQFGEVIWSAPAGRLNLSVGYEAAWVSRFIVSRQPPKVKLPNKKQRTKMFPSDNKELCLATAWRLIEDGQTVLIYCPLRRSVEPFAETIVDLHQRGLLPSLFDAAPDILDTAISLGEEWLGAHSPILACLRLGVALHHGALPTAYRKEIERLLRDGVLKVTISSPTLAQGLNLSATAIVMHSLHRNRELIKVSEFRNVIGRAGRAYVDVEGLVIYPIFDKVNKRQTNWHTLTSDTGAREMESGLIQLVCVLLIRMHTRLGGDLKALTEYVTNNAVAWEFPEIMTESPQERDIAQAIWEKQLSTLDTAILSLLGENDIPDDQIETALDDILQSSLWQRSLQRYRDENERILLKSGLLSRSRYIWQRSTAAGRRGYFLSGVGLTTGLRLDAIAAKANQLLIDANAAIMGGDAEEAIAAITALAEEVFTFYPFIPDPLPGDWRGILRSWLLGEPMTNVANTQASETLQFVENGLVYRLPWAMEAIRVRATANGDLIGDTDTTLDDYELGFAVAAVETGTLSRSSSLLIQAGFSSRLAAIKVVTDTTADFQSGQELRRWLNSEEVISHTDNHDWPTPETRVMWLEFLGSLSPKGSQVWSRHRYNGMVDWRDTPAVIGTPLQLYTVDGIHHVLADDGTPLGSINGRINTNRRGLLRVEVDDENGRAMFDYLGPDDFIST
T1 sequence (Q6XGE5 1-259 partner): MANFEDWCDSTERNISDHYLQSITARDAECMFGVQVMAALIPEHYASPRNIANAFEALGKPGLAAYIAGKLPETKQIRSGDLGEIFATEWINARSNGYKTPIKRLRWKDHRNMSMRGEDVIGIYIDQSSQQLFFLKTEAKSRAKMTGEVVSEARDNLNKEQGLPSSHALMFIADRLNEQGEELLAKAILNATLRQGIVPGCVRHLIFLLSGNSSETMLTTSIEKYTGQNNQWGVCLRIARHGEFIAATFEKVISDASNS
Put plainly: malachite green phosphate release ATPase assay. Type of assay: biochemical. The note with it: with or without supercoiled plasmid DNA; 1 mM ATP, 2 mM MgSO4, pH 8.8, 37 °C.

Consider `Nc1ncnc2c1ncn2[C@@H]1O[C@H](COP(=O)(O)OP(=O)(O)OP(=O)(O)O)[C@@H](O)[C@H]1O` [ATP], for which the “malachite green phosphate release ATPase assay” value is “ATPase assays with HamB, HamAB, and HamA*B in the presence of plasmid DNA”.
